Laboratory results from patent US7803364B2, “Multipotent neural stem cells” (The Cleveland Clinic Foundation, priority 2005, dated 2010).

Assays:
[1] = test system: βT4 secondary neurospheres; test: Secondary βT4 neurosphere differentiation into TuJ1-positive neurons and O4-positive oligodendrocytes; type: cell-based, rat; conditions: PDGF-A alone or in combination with SHH
From the text: With this assay, we will determine whether growth factors or secreted products from activated immune cells affect βT4 neurosphere behavior. Using standard neurosphere medium and N2 only medium as positive and negative controls for cell growth, we tested the effects of two concentrations of sonic hedgehog on oligodendrocyte and neuron production.
If βT4 cells represent a CNS stem cell, growth factors should induce βT4 cell division and regulate the production of mature CNS cells. […]
Undissociated secondary neurospheres were plated onto PLL-coated coverslips and analyzed at either 24 hours or 7 days in vitro with DMEM/F12, Glutamax and Penicillin-Streptomycin (1%, Cellgro) with different supplements as follows: N2 (1%); N2 (1%) plus sonic hedgehog (SHH, 1000 ng/ml, R&D, Minneapolis, Minn.); “neurosphere medium” (N2 (1%), EGF (20 ng/ml), FGF2, 20 ng/ml).
βT4 positive cell percentage in control and Ara-C-treated cultures were quantified by counting 10 randomly selected fields using standard fluorescence microscopy and a 20× objective. βT4 positive primary neurosphere and secondary neurosphere percentage were quantified by counting 10 randomly selected fields using a 10× objective. […]

[2] = test system: βT4 cells in neurospheres from P4 rat brain lateral ventricle; test: Ara-C enrichment of βT4 cells in neurosphere cultures; type: cell-based
From the text: We developed in vitro methods to study and enrich for βT4 cells. We harvested the lateral and medial wall of the lateral ventricles from P4 rat brain. As shown schematically in FIG. 12A, the tissue was dissociated into single cells and placed in neurosphere assay medium. Four days later, we attached the neurospheres to coverslips and stained for βT4. […] In an attempt to purify or enrich for βT4 cells, we treated P4 neurospheres (on coverslips) with cytosine-β-D-arabinofuranoside (Ara-C; for 4 days), which kills actively dividing cells. We dissociated the remaining cells and placed them in neurosphere-forming conditions for 4 days, plated the resulting neurospheres on coverslips and stained them for βIV tubulin.
The “dissociated” cultures had growth properties similar to the plated primary neurospheres.
Primary neurospheres, generated as described above, were dissociated with trypsin and trituration and then plated onto poly-L-lysine-coated (P-1274, Sigma) coverslips (10^5 cells/12 mm coverslip). The coverslips were incubated in neurosphere medium with cytoarabinoside-C (Ara-C, 10 μM, Sigma) for 4 days. Cells were detached from the coverslips by incubation on ice. […] The neurospheres resulting from these procedures are defined as secondary neurospheres and were analyzed by immunocytochemistry as described above or induced to differentiate.

Row | Substance | effect on differentiation of secondary neurospheres [1] | enrichment in βT4 cells ([2]; Ara-C 4 days versus culture without Ara-C (0.03%)) [fold] | percent of cells in secondary neurospheres βT4-positive ([2]; secondary neurospheres made from Ara-C-resistant primary neurospheres) [%]
1 | PDGF-A: platelet-derived growth factor added alone or with SHH | had not effect on differentiation |  | 
2 | cytosine-β-D-arabinofuranoside [Ara-C] |  | 2700 | > 83
